# In patent US4330529A, “Antibacterial composition” (Fujisawa Pharmaceutical Co., Ltd., priority 1979, dated 1982):
# Read-outs that look alike come from different tables or passages of the source.
# Experiments:
# [1] = tested on: Serratia marcescens 1421-1; test: microbe, parasite or virus in culture; assay type: cell-based; settings: for FIC: in 1:1 mixture C
# Protocol: (§1) Further, in order to observe the degree of synergistic antimicrobial activity, Fractional Inhibitory Concentration (FIC) values and FIC Index were calculated from the determined MIC values according to the following calculation method, respectively.
# (§2) In the case that the combination ratio of a mixture of monosodium salt of 3-(N-acetyl-N-hydroxyamino)propylphosphonic acid and monosodium salt of nocardicin A is m:n (by weight), each of FIC values and FIC indexes was calculated according to the following equations. [formula]
# [2] = tested on: Serratia marcescens 1421-3; test: microbe, parasite or virus in culture; assay type: cell-based; settings: for FIC: in 1:1 mixture C
# Protocol: as §1, §2
# [3] = tested on: Pseudomonas aeruginosa 1101-63; test: microbe, parasite or virus in culture; assay type: cell-based; settings: for FIC: in 1:1 mixture C
# Protocol: as §1, §2
# [4] = tested on: Serratia marcescens 1421-4; test: microbe, parasite or virus in culture; assay type: cell-based; settings: for FIC: in 1:1 mixture C
# Protocol: as §1, §2
# [5] = tested on: Klebsiella pneumoniae 1391-1; test: microbe, parasite or virus in culture; assay type: cell-based; settings: for FIC: in 1:1 mixture C
# Protocol: as §1, §2
# [6] = tested on: Pseudomonas aeruginosa 1101-5; assay type: in vivo, mice (ICR-strain male); settings: P. aeruginosa 1101-5; for FIC: in 1:1 mixture C, from ED50; for ED50: s.c. 1 h after i.p. inoculation, survival at one week
# Protocol: (§3) ICR-strain male mice weighing 23-25 g (10 mice per one group) were used. A prescribed amount of the pathogenic bacteria suspended in 5% aqueous mucin suspension (0.5 ml.) was inoculated intraperitoneally into each mouse. One hour after the inoculation, the antibiotics as mentioned in the following table were administered subcutaneously, and then survival of the test mice was measured one week after the infection to determine ED50 value.
# (§4) Incidentally, FIC values and FIC index in this in vivo test also calculated from the determined ED50 values according to the following calculation method.
# (§5) On the basis of the fact that the combination ratio of a mixture of monosodium salt of 3-(N-acetyl-N- hydroxyamino)propylphosphonic acid and monosodium salt of nocardicin A is 1:1 (by weight), each of FIC values and FIC index was calculated according to the following equations.
# (§6) FIC of monosodium salt of 3-(N-acetyl-N-hydroxyamino)propylphosphonic acid=1/2 C'ab/A'o
# (§7) FIC of monosodium salt of nocardicin A=1/2 C'ab/B'o
# (§8) FIC index=1/2 C'ab/A'o+1/2 C'ab/B'o
# [7] = tested on: Pseudomonas aeruginosa 1101-7; assay type: in vivo, mice (ICR-strain male); settings: P. aeruginosa 1101-7; for FIC: in 1:1 mixture C, from ED50; for ED50: s.c. 1 h after i.p. inoculation, survival at one week
# Protocol: as §3, §4, §5, §6, §7, §8
# [8] = tested on: Klebsiella pneumoniae 1391-5; test: MIC and FIC, Nutrient broth (Test 1); assay type: cell-based; settings: for FIC: in 1:1 mixture C
# Protocol: as §1, §2
# [9] = tested on: Klebsiella pneumoniae 1391-2; test: MIC and FIC, Nutrient broth (Test 1); assay type: cell-based; settings: for FIC: in 1:1 mixture C
# Protocol: as §1, §2
# [10] = tested on: Pseudomonas aeruginosa 1101-67; test: MIC and FIC, Nutrient broth (Test 1); assay type: cell-based; settings: for FIC: in 1:1 mixture C
# Protocol: as §1, §2
# [11] = tested on: Klebsiella pneumoniae 1391-3; test: MIC and FIC, Nutrient broth (Test 1); assay type: cell-based; settings: for FIC: in 1:1 mixture C
# Protocol: as §1, §2
# [12] = tested on: Pseudomonas aeruginosa 1101-68; test: MIC and FIC, Nutrient broth (Test 1); assay type: cell-based; settings: for FIC: in 1:1 mixture C
# Protocol: as §1, §2
# [13] = tested on: Pseudomonas aeruginosa 1101-66; test: MIC and FIC, Nutrient broth (Test 1); assay type: cell-based; settings: for FIC: in 1:1 mixture C
# Protocol: as §1, §2
# Escherichia coli 1341-35 = test: MIC and FIC, Nutrient broth (Test 1); assay type: cell-based; settings: for FIC: in 1:1 mixture C
# Protocol: as §1, §2
# Escherichia coli 1341-27 = test: MIC and FIC, Nutrient broth (Test 1); assay type: cell-based; settings: for FIC: in 1:1 mixture C
# Protocol: as §1, §2
# [14] = tested on: Serratia marcescens 1421-5; test: MIC and FIC, Nutrient broth (Test 1); assay type: cell-based; settings: for FIC: in 1:1 mixture C
# Protocol: as §1, §2
# [15] = tested on: Pseudomonas aeruginosa 1101-64; test: MIC and FIC, Nutrient broth (Test 1); assay type: cell-based; settings: for FIC: in 1:1 mixture C
# Protocol: as §1, §2
# [16] = tested on: Klebsiella pneumoniae NCTC 418; test: MIC and FIC, Nutrient agar (Tests 2, 3); assay type: cell-based; settings: NCTC418, K. pneumoniae NCTC 418, 20 h
# Protocol: (§9) After the incubation was carried out at 37° C. for 20 hours, MIC values were determined.
# [17] = tested on: Proteus mirabilis 1432-75; test: MIC and FIC, Nutrient agar (Tests 2, 3); assay type: cell-based
# [18] = tested on: Salmonella typhimurium 1406; test: MIC and FIC, Nutrient agar (Tests 2, 3); assay type: cell-based; settings: Salmonella enterica, 20 h
# [19] = tested on: Serratia marcescens 1421-4; test: MIC and FIC, Nutrient agar (Tests 2, 3); assay type: cell-based; settings: Serratia marcescens, 14214, 20 h
# [20] = tested on: Staphylococcus epidermidis 1601-1; test: MIC and FIC, Nutrient agar (Tests 2, 3); assay type: cell-based; settings: 16011, S. epidermidis 1601-1, 20 h
# Protocol: as §9
# [21] = tested on: Salmonella paratyphi A-1015; test: MIC and FIC, Nutrient agar (Test 2); assay type: cell-based; settings: Salmonella enterica; S. paratyphi A-1015; 20 h
# Protocol: as §9
# (§10) FIC values and FIC Index were calculated in substantially the same manner as described in Test 1.
# [22] = tested on: Enterobacter cloacae 1401-4; test: MIC and FIC, Nutrient agar (Tests 2, 3); assay type: cell-based; settings: Enterobacter cloacae, 14014, 20 h, E. cloacae 1401-4
# [23] = tested on: Alcaligenes faecalis 1311-1; test: MIC and FIC, Nutrient agar (Test 2); assay type: cell-based; settings: 13111, A. faecalis 1311-1, 20 h
# Protocol: as §9, §10
# [24] = tested on: Shigella flexneri Ia EW-8; test: MIC and FIC, Nutrient agar (Test 2); assay type: cell-based; settings: IAEW8, S. flexneri Ia EW-8, 20 h
# Protocol: as §9
# Proteus morganii 1433-2 = test: MIC and FIC, Nutrient agar (Tests 2, 3); assay type: cell-based; settings: Morganella morganii, 14332; P. morganii 1433-2; 20 h
# Protocol: as §9
# [25] = tested on: Proteus vulgaris IAM-1025; test: MIC and FIC, Nutrient agar (Test 2); assay type: cell-based; settings: IAM1025, P. vulgaris IAM-1025, 20 h
# Protocol: as §9, §10
# [26] = tested on: Enterobacter aerogenes 1402-10; test: MIC and FIC, Nutrient agar (Tests 2, 3); assay type: cell-based; settings: Klebsiella aerogenes, 140210; E. aerogenes 1402-10; 20 h; read-out: MIC
# [27] = tested on: Salmonella enteritidis 1891; test: MIC and FIC, Nutrient agar (Test 2); assay type: cell-based; settings: Salmonella enterica; S. enteritidis 1891; 20 h
# Protocol: as §9
compound,measurement,setting,value
"CC(=O)N(O)CCCP(=O)(O)O [A (Table 1), 3-(N-acetyl-N-hydroxyamino)propylphosphonic acid]",FIC,[1]; S. marcescens 1421-1,< 0.008
same,MIC,"[1]; Serratia marcescens, 14211, 20 h",> 800 µg/mL
same,FIC,[2]; S. marcescens 1421-3,< 0.063
same,MIC,"[2]; Serratia marcescens, 14213, 20 h",> 800 µg/mL
same,FIC,[3]; P. aeruginosa 1101-63,0.063
same,MIC,"[3]; Pseudomonas aeruginosa, 110163, 20 h",800 µg/mL
same,FIC,[4]; S. marcescens 1421-4,< 0.031
same,MIC,"[4]; Serratia marcescens, 14214, 20 h",> 800 µg/mL
same,FIC,[5]; K. pneumoniae 1391-1,0.125
same,MIC,"[5]; Klebsiella pneumoniae, 13911, 20 h",400 µg/mL
same,FIC,[6],< 0.018
same,ED50,[6],> 20 mg/mouse
same,FIC,[7],< 0.063
same,ED50,[7],> 20 mg/mouse
same,FIC,[8]; K. pneumoniae 1391-5,0.250
same,MIC,"[8]; Klebsiella pneumoniae, 13915, 20 h",400 µg/mL
same,FIC,[9]; K. pneumoniae 1391-2,< 0.250
same,MIC,"[9]; Klebsiella pneumoniae, 13912, 20 h",> 800 µg/mL
same,FIC,[10]; P. aeruginosa 1101-67,0.250
same,MIC,"[10]; Pseudomonas aeruginosa, 110167, 20 h",200 µg/mL
same,FIC,[11]; K. pneumoniae 1391-3,0.250
same,MIC,"[11]; Klebsiella pneumoniae, 13913, 20 h",800 µg/mL
same,FIC,[12]; P. aeruginosa 1101-68,0.031
same,MIC,"[12]; Pseudomonas aeruginosa, 110168, 20 h",800 µg/mL
same,FIC,[13]; P. aeruginosa 1101-66,0.125
same,MIC,"[13]; Pseudomonas aeruginosa, 110166, 20 h",200 µg/mL
same,FIC,Escherichia coli 1341-35; E. coli 1341-35,0.250
same,MIC,"Escherichia coli 1341-35; Escherichia coli, 134135, 20 h",100 µg/mL
same,FIC,Escherichia coli 1341-27; E. coli 1341-27,0.125
same,MIC,"Escherichia coli 1341-27; Escherichia coli, 134127, 20 h",200 µg/mL
same,FIC,[14]; S. marcescens 1421-5,< 0.016
same,MIC,"[14]; Serratia marcescens, 14215, 20 h",> 800 µg/mL
same,FIC,[15]; P. aeruginosa 1101-64,< 0.031
same,MIC,"[15]; Pseudomonas aeruginosa, 110164, 20 h",> 800 µg/mL
"N[C@H](CCOc1ccc(/C(=N/O)C(=O)N[C@H]2CN([C@@H](C(=O)O)c3ccc(O)cc3)C2=O)cc1)C(=O)O [B (Table 1), nocardicin A]",MIC,[16],200 µg/mL
same,FIC,[1]; S. marcescens 1421-1,0.063
same,MIC,"[1]; Serratia marcescens, 14211, S. marcescens 1421-1, 20 h, read-out: MIC",100 µg/mL
same,FIC,[2]; S. marcescens 1421-3,0.125
same,MIC,"[2]; Serratia marcescens, 14213, S. marcescens 1421-3, 20 h, read-out: MIC",400 µg/mL
same,FIC,[3]; P. aeruginosa 1101-63,0.125
same,MIC,"[3]; Pseudomonas aeruginosa, 110163, P. aeruginosa 1101-63, 20 h, read-out: MIC",400 µg/mL
same,FIC,[4]; S. marcescens 1421-4,0.063
same,MIC,"[4]; Serratia marcescens, 14214, S. marcescens 1421-4, broth, 20 h, read-out: MIC",400 µg/mL
same,FIC,[5]; K. pneumoniae 1391-1,0.063
same,MIC,"[5]; Klebsiella pneumoniae, 13911, K. pneumoniae 1391-1, 20 h, read-out: MIC",800 µg/mL
same,FIC,[6],0.273
same,ED50,[6],1.3 mg/mouse
same,FIC,[7],0.083
same,ED50,[7],15.0 mg/mouse
same,MIC,"[17]; Proteus mirabilis, 143275, 20 h",3.13 µg/mL
same,MIC,"[18]; S. typhimurium 1406, read-out: MIC",25 µg/mL
same,MIC,[19],25 µg/mL
same,FIC,[8]; K. pneumoniae 1391-5,0.125
same,MIC,"[8]; Klebsiella pneumoniae, 13915, K. pneumoniae 1391-5, 20 h, read-out: MIC",800 µg/mL
same,FIC,[9]; K. pneumoniae 1391-2,0.250
same,MIC,"[9]; Klebsiella pneumoniae, 13912, K. pneumoniae 1391-2, 20 h, read-out: MIC",800 µg/mL
same,FIC,[10]; P. aeruginosa 1101-67,0.250
same,MIC,"[10]; Pseudomonas aeruginosa, 110167, P. aeruginosa 1101-67, 20 h, read-out: MIC",200 µg/mL
same,FIC,[11]; K. pneumoniae 1391-3,0.250
same,MIC,"[11]; Klebsiella pneumoniae, 13913, K. pneumoniae 1391-3, 20 h, read-out: MIC",800 µg/mL
same,FIC,[12]; P. aeruginosa 1101-68,0.250
same,MIC,"[12]; Pseudomonas aeruginosa, 110168, P. aeruginosa 1101-68, 20 h, read-out: MIC",100 µg/mL
same,FIC,[13]; P. aeruginosa 1101-66,0.250
same,MIC,"[13]; Pseudomonas aeruginosa, 110166, P. aeruginosa 1101-66, 20 h, read-out: MIC",100 µg/mL
same,FIC,Escherichia coli 1341-35; E. coli 1341-35,0.250
same,MIC,"Escherichia coli 1341-35; Escherichia coli, 134135, E. coli 1341-35, 20 h, read-out: MIC",100 µg/mL
same,FIC,Escherichia coli 1341-27; E. coli 1341-27,0.250
same,MIC,"Escherichia coli 1341-27; Escherichia coli, 134127, E. coli 1341-27, 20 h, read-out: MIC",100 µg/mL
same,FIC,[14]; S. marcescens 1421-5,0.063
same,MIC,"[14]; Serratia marcescens, 14215, S. marcescens 1421-5, 20 h, read-out: MIC",200 µg/mL
same,FIC,[15]; P. aeruginosa 1101-64,0.125
same,MIC,"[15]; Pseudomonas aeruginosa, 110164, P. aeruginosa 1101-64, 20 h, read-out: MIC",200 µg/mL
"CC1(C)S[C@@H]2[C@H](NC(=O)[C@H](N)c3ccccc3)C(=O)N2[C@H]1C(=O)O [B (Table 2), ampicillin]",MIC,[20],0.2 µg/mL
same,MIC,[16],12.5 µg/mL
same,MIC,[21],0.39 µg/mL
same,MIC,[22],100 µg/mL
same,MIC,[23],6.25 µg/mL
same,MIC,[24],0.78 µg/mL
same,MIC,Proteus morganii 1433-2,25 µg/mL
same,MIC,[25],0.78 µg/mL
same,MIC,"[17]; Proteus mirabilis, 143275, P. mirabilis 1432-75, 20 h, read-out: MIC",0.39 µg/mL
same,MIC,[26],200 µg/mL
same,MIC,[18]; TYPHIMURIUM,0.39 µg/mL
same,MIC,[19],25 µg/mL
same,MIC,[27],0.39 µg/mL
